pIC50: −log10 of the molar value.
System: 755483-174-R-J1-PDC complex spheroid growth, percent test/control
Assay: Anticancer human tumor 755483-174-R-J1-PDC patient-derived rhabdomyosarcoma cell line growth inhibition [Asc]
Details: for pIC50: curve of first compound; for viability, T/C: stronger effect = lower value
Procedure: Multicellular complex tumor spheroid response to apoptosis pathway targeting inhibitors Alrizomadlin, Pelcitoclax, and Dasminapant in combination with a variety of drugs and investigational agents in selected tumor cell lines
The MDM2 inhibitor alrizomadlin, the Bcl-2/Bcl-xL inhibitor pelcitoclax, and the IAPs inhibitor dasminapant were evaluated both individually and in combination with standard of care and investigational anticancer small molecules within a complex spheroid model of solid tumors. . Complex spheroids include a stromal component modeled by human endothelial cells (HUVEC) and fibroblasts modeled by human mesenchymal stem cells (MSCs). The concentration ranges selected for each drug and investigational agent were based upon clinically achievable concentrations if the clinical Cmax of the agent was known.
Compounds. The drugs and investigational agents: alrizomadlin (APG-115; NSC831270), pelcitoclax (APG-1252; NSC835773), dasminapant (APG-1387;NSC834197), TAK-243 (NSC785004), copanlisib (NSC809693), olaparib (NSC753686), talazoparib (NSC767125), cobimetinib (NSC 768068), eltanexor (KPT-8602, NSC 794443), abemaciclib (NSC 768073), sotorasib (NSC818433), adagrasib (NSC 831453), MRTX-1133 (NSC 836407), Iadademestat (ORY1001, NSC 806812), and RMC-4630 (NSC839698), were obtained from the NCI Developmental Therapeutics Program Chemical Repository. The FDA-approved anticancer drug set is available from the Developmental Therapeutics Program at https://dtp.cancer.gov/organization/dscb/obtaining/available plates.htm. […] The stock solutions were prepared in dimethyl sulfoxide (DMSO, Sigma-Aldrich, St. Louis, MO, cat. D2650) at 800-fold the tested concentration and stored at -70 degrees C prior to their use. All drugs and investigational agents were tested over a range starting from a high concentration at or near the clinical Cmax and decreasing in half-log increments. If the clinical Cmax for an agent had not been determined, the highest concentration tested was 10 microM.
The patient-derived cancer (PDC) cell lines include five colon adenocarcinomas: 186277-243-T-J2-PDC, 616215-338-R-J1-PDC, 439559-082-T-J2-PDC, 463943-066-T-J2-PDC, and 519858-162-T-J1-PDC; three pancreatic carcinomas: 323965-272-R-J2-PDC, 521955-158-R6-J3-PDC, and 521955-158-R2-J5-PDC; two uterine sarcomas: 327498-152-R-J2-PDC and 993429-296-R-J1-PDC; two rhabdomyosarcomas: 755483-174-R-J1-PDC and 772245-204-R-J1-PDC; two soft tissue sarcomas: 126254-015-R-J1-PDC and 494315-158-R-J1-PDC; two malignant fibrous histiocytomas: 317291-083-R-J1-PDC and 596521-263-R-J1-PDC; two breast carcinomas: 171881-019-R-J1-PDC and 885512-296-R-J2-PDC; and one ovarian carcinoma: 6556581-035-R-J-PDC were obtained from the NCI PDMR, (https://pdmr.cancer.gov). The established cell lines HSSY-2 synovial sarcoma (RRID:CVCL 8719), SYO-1 synovial sarcoma (RRID:CVCL_7146), MPNST malignant peripheral neural sheath tumor were obtained from the Sloan Kettering Institute. The following established cell lines were purchased from the American Type Culture Collection (ATCC, Manassas, VA), Sor the received from the NCI repository:, PANC-1 pancreatic carcinoma (CRL-1469, RRID:CVCL_0480), OVCAR-5 ovarian carcinoma (RRID:CVCL_1628), OVCAR-8 ovarian carcinoma (RRID:CVCL_1629), , MCF-7 breast carcinoma (CRL-12584, RRID:CVCL_0031), MDA-MB-231 breast carcinoma (CRL-12532, RRID:CVCL_0062), NCI-H1876 small cell lung carcinoma (CRL-5902, RRID:CVCL_1503), NCI-H510A small cell lung carcinoma (HTB-184, RRID:CVCL_1565), NCI-H1417 (CRL-5869, RRID:CVCL_1469), and NCI-H196 small cell lung carcinoma (CRL-5823, RRID:CVCL_1509). Dr. Peter Houghton (Greehey Children's Cancer Research Institute, University of Texas Health Science Center, San Antonio, TX) provided Rh-18 rhabdomyosarcoma (RRID:CVCL_1659). Pooled donor human umbilical vein endothelial cells (HUVEC, Lonza, cat. CC-2519) and human mesenchymal stem cells (hMSC, Lonza, cat. PT-2501) were purchased from Lonza (Walkersville, MD).
Cell Culture. […]
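Also: spheroids exposed to compounds for seven days before readout.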

Work on O=C(c1ccc(F)c(F)c1Nc1ccc(I)cc1F)N1CC(O)([C@@H]2CCCCN2)C1 + CCN1C(C(=O)NC23CCC(C(=O)O)(CC2)CC3)C(c2cccc(Cl)c2F)C2(C(=O)Nc3cc(Cl)ccc32)C12CCCCC2 yielded a pIC50 (second compound 0.03 µM) of 6.27, a pIC50 (second compound 0.0949 µM) of 6.47 and a pIC50 (second compound 0.3 µM) of 6.37. The pIC50 (second compound 0.949 µM) was 6.56, the pIC50 (second compound 3 µM) was 6.48 and the viability, T/C (second compound 0.03 µM, first compound 0.00316 µM) was 85.3%. For the same compound, the viability, T/C (second compound 0.03 µM, first compound 0.01 µM) was 108%, the viability, T/C (second compound 0.03 µM, first compound 0.0316 µM) was 95.4% and the viability, T/C (second compound 0.03 µM, first compound 0.1 µM) was 99.2%. For the same compound, the viability, T/C (second compound 0.03 µM, first compound 0.316 µM) was 78.3%, the viability, T/C (second compound 0.03 µM, first compound 1 µM) was 16% and the viability, T/C (second compound 0.0949 µM, first compound 0.00316 µM) was 113%. It also gave a viability, T/C (second compound 0.0949 µM, first compound 0.01 µM) of 124%, a viability, T/C (second compound 0.0949 µM, first compound 0.0316 µM) of 117% and a viability, T/C (second compound 0.0949 µM, first compound 0.1 µM) of 93.5%. For the same compound, the viability, T/C (second compound 0.0949 µM, first compound 0.316 µM) was 53%, the viability, T/C (second compound 0.0949 µM, first compound 1 µM) was 18.6% and the viability, T/C (second compound 0.3 µM, first compound 0.00316 µM) was 109%. For the same compound, the viability, T/C (second compound 0.3 µM, first compound 0.01 µM) was 109%, the viability, T/C (second compound 0.3 µM, first compound 0.0316 µM) was 102% and the viability, T/C (second compound 0.3 µM, first compound 0.1 µM) was 118%. It also gave a viability, T/C (second compound 0.3 µM, first compound 0.316 µM) of 61%, a viability, T/C (second compound 0.3 µM, first compound 1 µM) of 18.2% and a viability, T/C (second compound 0.949 µM, first compound 0.00316 µM) of 126%. The viability, T/C (second compound 0.949 µM, first compound 0.01 µM) was 127%, the viability, T/C (second compound 0.949 µM, first compound 0.0316 µM) was 134% and the viability, T/C (second compound 0.949 µM, first compound 0.1 µM) was 121%. The viability, T/C (second compound 0.949 µM, first compound 0.316 µM) was 39.8%, the viability, T/C (second compound 0.949 µM, first compound 1 µM) was 18.3% and the viability, T/C (second compound 3 µM, first compound 0.00316 µM) was 104%. For the same compound, the viability, T/C (second compound 3 µM, first compound 0.01 µM) was 120%, the viability, T/C (second compound 3 µM, first compound 0.0316 µM) was 90% and the viability, T/C (second compound 3 µM, first compound 0.1 µM) was 97.5%. The viability, T/C (second compound 3 µM, first compound 0.316 µM) was 50.3% and the viability, T/C (second compound 3 µM, first compound 1 µM) was 16.4%.
For NC(=O)C(=Cn1cnc(-c2cc(C(F)(F)F)cc(C(F)(F)F)c2)n1)c1cncnc1 + Cc1c(S(C)(=O)=O)c(-c2cc(F)cc(N3CCN(c4ccc(NS(=O)(=O)c5ccc(NC(CCN6CCC(C(=O)OCCCP(=O)(O)O)CC6)CSc6ccccc6)c(S(=O)(=O)C(F)(F)F)c5)cc4)CC3)c2)c(-c2ccc(Cl)cc2)n1C(C)C, the pIC50 (second compound 0.1 µM) was greater than 9.02, the pIC50 (second compound 0.316 µM) was greater than 9.02 and the pIC50 (second compound 1 µM) was greater than 9.02. For the same compound, the pIC50 (second compound 3.16 µM) was greater than 9.02, the pIC50 (second compound 10 µM) was greater than 9.02 and the viability, T/C (second compound 0.1 µM, first compound 0.000949 µM) was 47.5%. It also gave a viability, T/C (second compound 0.1 µM, first compound 0.003 µM) of 36.2%, a viability, T/C (second compound 0.1 µM, first compound 0.00949 µM) of 22.7% and a viability, T/C (second compound 0.1 µM, first compound 0.03 µM) of 6.11%. The viability, T/C (second compound 0.1 µM, first compound 0.0949 µM) was 16.4%, the viability, T/C (second compound 0.1 µM, first compound 0.3 µM) was 4.19% and the viability, T/C (second compound 0.316 µM, first compound 0.000949 µM) was 47%. For the same compound, the viability, T/C (second compound 0.316 µM, first compound 0.003 µM) was 31.2%, the viability, T/C (second compound 0.316 µM, first compound 0.00949 µM) was 12.9% and the viability, T/C (second compound 0.316 µM, first compound 0.03 µM) was 7.11%. The viability, T/C (second compound 0.316 µM, first compound 0.0949 µM) was 2.26%, the viability, T/C (second compound 0.316 µM, first compound 0.3 µM) was 1.84% and the viability, T/C (second compound 1 µM, first compound 0.000949 µM) was 34%. It also gave a viability, T/C (second compound 1 µM, first compound 0.003 µM) of 38.8%, a viability, T/C (second compound 1 µM, first compound 0.00949 µM) of 13.9% and a viability, T/C (second compound 1 µM, first compound 0.03 µM) of 7.14%. The viability, T/C (second compound 1 µM, first compound 0.0949 µM) was 3.61%, the viability, T/C (second compound 1 µM, first compound 0.3 µM) was 2.25% and the viability, T/C (second compound 3.16 µM, first compound 0.000949 µM) was 30.6%. The viability, T/C (second compound 3.16 µM, first compound 0.003 µM) was 25.2%, the viability, T/C (second compound 3.16 µM, first compound 0.00949 µM) was 14.1% and the viability, T/C (second compound 3.16 µM, first compound 0.03 µM) was 5.04%. For the same compound, the viability, T/C (second compound 3.16 µM, first compound 0.0949 µM) was 3%, the viability, T/C (second compound 3.16 µM, first compound 0.3 µM) was 4.14% and the viability, T/C (second compound 10 µM, first compound 0.000949 µM) was 24.6%. The viability, T/C (second compound 10 µM, first compound 0.003 µM) was 33.5%, the viability, T/C (second compound 10 µM, first compound 0.00949 µM) was 13.9% and the viability, T/C (second compound 10 µM, first compound 0.03 µM) was 3.72%. The viability, T/C (second compound 10 µM, first compound 0.0949 µM) was 1.94% and the viability, T/C (second compound 10 µM, first compound 0.3 µM) was 0.83%.

Reference: PubChem BioAssay AID1963434 (Molecular Pharmacology Branch, DTP, NCI, 2024)
